Experiment [1] deals with T1, BACE-1 (Homo sapiens, UniProt P56817). The experiment in a line: BACE-1 enzyme assay. The experiment is classed as biochemical.
In experiment [2] the target is T1, BACE-1. The experiment in a line: BACE-1 cell assay. The note with it: HEK293, read-out: percent inhibition of BACE-1 in cell-based assay.

The term IC50 denotes the midpoint of a concentration-inhibition curve. A high value points to weaker potency in that assay. Usually inhibition stands for the change of the read-out against control, counted positive when it falls.

T1 sequence (P56817 46-501): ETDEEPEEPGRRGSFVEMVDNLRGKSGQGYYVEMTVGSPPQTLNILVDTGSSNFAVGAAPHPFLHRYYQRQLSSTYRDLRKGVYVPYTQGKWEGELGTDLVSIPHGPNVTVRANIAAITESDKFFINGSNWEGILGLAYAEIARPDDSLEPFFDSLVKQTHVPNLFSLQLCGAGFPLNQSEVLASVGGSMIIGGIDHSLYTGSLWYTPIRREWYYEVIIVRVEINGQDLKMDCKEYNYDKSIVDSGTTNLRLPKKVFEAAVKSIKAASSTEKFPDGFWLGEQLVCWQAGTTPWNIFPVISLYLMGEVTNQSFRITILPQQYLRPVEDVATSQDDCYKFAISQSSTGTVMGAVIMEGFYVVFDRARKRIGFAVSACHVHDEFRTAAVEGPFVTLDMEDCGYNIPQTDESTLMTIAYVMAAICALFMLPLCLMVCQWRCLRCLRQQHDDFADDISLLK

For `COCCCOc1cc(OC[C@H](N)[C@@H](O)C[C@@H](OC)C(=O)N[C@H](C(=O)NCc2ccc(Cl)cc2)C(C)C)ccc1-c1ccc(F)cc1` [Compound 20, (2R,4S,5S)-5-Amino-6-[4'-fluoro-2-(3-methoxy-propoxy)-biphenyl-4-yloxy]-4-hydroxy-2-methoxy-hexanoic acid [(S)-1-(4-chloro-benzylcarbamoyl)-2-methyl-propyl]-amide], it took 2700 nM to reach half-maximal inhibition on BACE-1 [1] (IC50). At BACE-1 [1], `CO[C@H](C[C@H](O)[C@H](COc1ccc(OCc2ccccc2)cc1)NC(=O)c1cccc(N(C)S(C)(=O)=O)c1)C(=O)N[C@H](C(=O)NCc1ccccc1)C(C)C` [Compound 19, N-[(1S,2S,4R)-4-((S)-1-Benzylcarbamoyl-2-methyl-propylcarbamoyl)-1-(4-benzyloxy-phenoxymethyl)-2-hydroxy-4-methoxy-butyl]-3-(methanesulfonyl-methyl-amino)-benzamide] yielded an IC50 of 4600 nM. On the same count and under the same terms, to `CO[C@H](C[C@H](O)[C@@H](N)COc1cccc(OCc2ccccc2)c1)C(=O)N[C@H](C(=O)NCc1ccccc1)C(C)C` [Compound 17, (2R,4S,5S)-5-Amino-6-(3-benzyloxy-phenoxy)-4-hydroxy-2-methoxy-hexanoic acid ((S)-1-benzylcarbamoyl-2-methyl-propyl)-amide] belongs over 10000 nM. On to `CC[C@H](C)[C@@H](CNc1ccc(Cl)cc1)NC(=O)[C@@H](C[C@H](O)[C@@H](N)COc1ccc(-c2ccc(F)cc2)c(OCCCOC)c1)C(C)C` [Compound 30, (2S,4S,5S)-5-amino-N-((2S,3S)-1-(4-chlorophenylamino)-3-methylpentan-2-yl)-6-(4'-fluoro-2-(3-methoxypropoxy)bi-phenyl-4-yloxy)-4-hydroxy-2-isopropylhexanamide], for which the inhibition at 1 µM on BACE-1 [2] came to 28%. The same molecule yielded an IC50 at BACE-1 [1] of 540 nM. Regarding `CC[C@H](C)[C@H](NC(=O)[C@@H](C[C@H](O)[C@@H](N)COc1ccc(-c2ccc(F)cc2)cc1)OC)C(=O)NCc1ccc(Cl)cc1` [Compound 23, (2R,4S,5S)-5-Amino-6-(4'-fluoro-biphenyl-4-yloxy)-4-hydroxy-2-methoxy-hexanoic acid [(1S,2S)-1-(4-chloro-benzylcarbamoyl)-2-methyl-butyl]-amide], the IC50 against BACE-1 [1] is over 10000 nM. For `CC[C@H](C)[C@@H](CNc1ccc(Cl)cc1)NC(=O)[C@H](Cc1ccccc1)C[C@H](O)[C@@H](N)COc1ccc(-c2ccc(F)cc2)c(OCCCOC)c1` [Compound 28, (2R,4S,5S)-5-amino-2-benzyl-N-((2S,3S)-1-(4-chlorophenylamino)-3-methylpentan-2-yl)-6-(4'-fluoro-2-(3-methoxypropoxy)biphenyl-4-yloxy)-4-hydroxyhexanamide], the inhibition at 1 µM on BACE-1 [2] amounted to 14%. Moreover, the IC50 at BACE-1 [1] is 300 nM. The matching figures for `CC[C@H](C)[C@H](NC(=O)[C@@H](C[C@H](O)[C@H](COc1ccc(-c2ccccc2)c(OCCCOC)c1)NC(=O)c1cc(C(=O)N[C@H](C)c2ccccc2)cc(N(C)S(C)(=O)=O)c1)OC)C(=O)NCc1ccc(Cl)cc1` [Compound 25, N-{(1S,2S,4R)-4-[(1S,2S)-1-(4-Chloro-benzylcarbamoyl)-2-methyl-butylcarbamoyl]-2-hydroxy-4-methoxy-1-[2-(3-methoxypropoxy)-biphenyl-4-yloxymethyl]-butyl}-5-(methanesulfonyl-methyl-amino)-N'-((R)-1-phenyl-ethyl)-isophthalamide]: 3% and 69 nM.

Values taken from publication PMC3617544 (The Open Medicinal Chemistry Journal, 2013).
